According to patent US20020028851A1, “Guanylhydrazones and their use to treat inflammatory conditions” (priority 1994, published 2002):
Blank lines part the entries; values can stand above or below the molecule they belong to.

Key:
TNF = TNF production by LPS/γIFN-stimulated RAW 264.7 cells; format: cell-based, murine; details: even at concentrations of 10 μM
Protocol: RAW 264.7 cells were plated in standard 6-well culture plates at a density of 10^6/well and allowed to adhere for from 2 hr to overnight. The medium was then replaced with medium containing the compound to be tested. One hour later, the medium was supplemented so as to contain 25 U/ml γIFN and 0.1 μg/ml LPS and the cultures incubated a further 18 hr. The medium was then collected, and cell debris removed by centrifugation. This conditioned supernatant was then assayed for the presence of TNF using standard methodologies: L929 cell cytotoxicity bioassay, radioimmunoassay or ELISA, and Western blotting with antibodies against murine TNF.

[1] = test system: Endothelial Derived Relaxing Factor (EDRF) activity; assay: Acetylcholine-induced hypotensive (EDRF) response; format: in vivo, rats; details: 10 mg/Kg single intra-arterial dose; blood pressure 30 sec after ACh
Protocol: Female Sprague-Dawley rats (225-250 g body weight) were anesthetized with nembutal (50 mg/Kg, i.p.), a tracheostomy tube was inserted, and the carotid artery and jugular vein cannulated by standard methods using polyethylene tubing (PE 50). Tracey, K. J., et al., 1986, SCIENCE 234, 470-474. Blood pressure was recorded continuously with a pressure transducer and recorder (Model RS-3200, Gould Inc.,). In the experiment shown here, animals received a single sterile intra-arterial dose of either N^G-methyl-L-arginine (NMA; Sigma; 10 mg/Kg), Compound No. 14 (50 mg/Kg), or vehicle (0.4 ml). Acetylcholine (ACh) diluted in LPS-free sterile water was administered via the jugular vein cannula at the doses indicated. The solutions were diluted to produce a constant injectable volume of 1 ml/Kg body weight.
The hypotensive (EDRF) response was measured as the decline in mean arterial blood pressure recorded 30 sec after administration of ACh. The number of animals studied at each dose of acetylcholine was 4-6 for each experimental condition; data are expressed as the mean +s.e.m.

RAW 264.7 cells [2] = assay: Whole cell inhibition assay for urea output; format: cell-based, murine; details: for IC50: Mus musculus, RAW264.7, interpolated, γIFN+LPS-activated RAW 264.7, 18 hours, read-out: I.C.50 (in parenthesis), inhibition of urea production; for urea % suppression of induced production: γIFN+LPS, 18 hours
Protocol: (§1) RAW 264.7 cells are plated in microculture wells at 1×10^6/ml in RPMI 1640 with 10% FBS and otherwise standard culture conditions and allowed to adhere for 5 hours. They are then activated with 25 U/ml γIFN and 0.1 μg/ml LPS in the presence of test inhibitors. The urea concentration present in the supernatant media, after 18 hours of culture, is determined by a colorimetric blood urea nitrogen diacetylmonoxime assay performed on an aliquot of the culture supernatant (Sigma Chem. Co., St. Louis, Mo.) and inhibition is expressed as the percentage urea compared to that of a parallel control culture treated identically except that the concentration of added inhibitor is zero.
(§2) Various concentrations of the test compounds are included in the media of the stimulated RAW 264.7 cells in culture. The concentration of urea and/or nitrite after 18 hours of activated culture is determined and compared to the uninhibited control value obtained from at least one parallel culture. The fractional reduction is calculated for each concentration of inhibitor and the IC50 (concentration giving 50% reduction) is interpolated. Compounds were dissolved in media with mild heat (60° C.). Those with limited solubility were dissolved in base. The concentration of stock solutions of those compounds which were not completely soluble was determined by OD280.

[3] = Solubility on preparing test solutions; format: physicochemical; details: preparation of test solutions
Protocol: as §2

RAW 264.7 cells [4] = assay: Whole cell inhibition assay for NO (nitrite) output; format: cell-based, murine; details: γIFN+LPS, 18 hours
Protocol: as §1
The production of nitrite is determined by assay of the same tissue culture supernatant by means of a calorimetric assay. Briefly, 4 parts of test solution containing 1% (w/v) sulfanilamide, 0.1% naphthylethylenediamine di-HCl (Griess Reagent), 2.5% H3PO4 and one part media are mixed, incubated for 10 minutes and the absorbance at 560 nm determined. The nitrite concentrations are interpolated from reference curves prepared using NaNO2.
as §2
(§3) This section describes experiments that measure the concentration of Compound No. 14 needed to inhibit arginine uptake and NO output. The techniques employed were described in section 7.1 supra.

RAW 264.7 cells [5] = assay: Whole cell inhibition assay for arginine uptake; format: cell-based, murine; details: γIFN+LPS, 8 hours
Protocol: In the embodiment described in the working example herein, a test population of cells was cultured for about 3 hours so that the cells became firmly adherent. Various concentrations of the potential inhibitors were then added to parallel cultures. One hour later the macrophage stimulators, e.g. including, but not limited to LPS and γIFN, were added. Eighteen hours later the cells were washed in a warm balanced salt solution supplemented with glucose. Carrier-free radiolabelled arginine was added; after 5 minutes, active uptake of arginine was stopped by washing the cell three times with buffer, chilled to 0° C., containing 10 mM unlabeled arginine to displace any externally bound label. The contents of the washed cells are solubilized in 100 μl of formic acid and counted by standard techniques.
RAW 264.7 cells are plated in standard 96-well microculture plates at a concentration of 10^5/well and allowed to adhere for from 2 hours to overnight. The medium is then replaced with medium containing the compound to be tested. One hour later, the medium is supplemented so as to contain 25 U/ml γIFN and 0.1 μg/ml LPS and the cultures incubated a further. The cells are then rinsed twice in HEPES- buffered Krebs salt solution with 0.1% glucose. Carrier-free tetra-^3H-arginine is added to each well (2.5 μCi/well with specific activity of […]) and the active uptake of arginine is allowed to continue for a 5 minute period after which the cells are rapidly cooled to 0° C. by lavage with iced saline containing 10 mM unlabeled arginine to displace any externally bound label. The contents of the washed cells are solubilized in 100 Al of formic acid and counted by standard techniques. In subsequent experiments to determine the acitivity of the inhibitors, incubations were performed for 8 hours.
as §3

[6] = dose 23.3 (dose unit not given)

SMILES: CNC(=N)NCCC[C@H](N)C(=O)O [NMA, N^G-methyl-L-arginine, reference compound]
- inhibition of the production of TNF (TNF): did not inhibit
- acetylcholine-induced EDRF activity in vivo [1]: inhibited

- melting point: 322 to 323 °C (dec.)
- IC50 (RAW 264.7 cells [2]): 150 µM
- Dissolved in (solubility) [3]: Not soluble
SMILES: COc1cc(C=NNC(=N)N)ccc1OCCOc1ccc(C=NNC(=N)N)cc1OC.Cl.Cl [Compound 17, 4,4′-(ethylenedioxy)di-m-anisaldehyde bis(amidinohydrazone) dihydrochloride]
- urea % suppression of induced production (RAW 264.7 cells [2]; dose 177 μM): 54-100%
- no2/no3 % suppression of induced production (RAW 264.7 cells [4]; dose 177 μM): 71-87%

- melting point: 233 to 235 °C
- IC50 (RAW 264.7 cells [2]): 25 µM
- Dissolved in (solubility) [3]: Not soluble
SMILES: COc1ccc(C=NNC(=N)N)cc1OCCCOc1cc(C=NNC(=N)N)ccc1OC.Cl.Cl [Compound 18, 3,3′-(trimethylenedioxy)di-p-anisaldehyde bis(amidinohydrazone) dihydrochloride]
- urea % suppression of induced production (RAW 264.7 cells [2]; dose 233 μM): 100%
- urea % suppression of induced production (RAW 264.7 cells [2]; dose 7.7 (dose unit not given)): 9%
- urea % suppression of induced production (RAW 264.7 cells [2]; [6]): 30%
- no2/no3 % suppression of induced production (RAW 264.7 cells [4]; dose 233 μM): 100%
- no2/no3 % suppression of induced production (RAW 264.7 cells [4]; dose 7.7 (dose unit not given)): 0%
- no2/no3 % suppression of induced production (RAW 264.7 cells [4]; [6]): 13%

- melting point: 264 to 266 °C
- IC50 (RAW 264.7 cells [2]): 1 to 10 µM
- Dissolved in (solubility) [3]: Not soluble;
SMILES: Cl.Cl.N=C(N)NN=Cc1cccc(OCCOc2cccc(C=NNC(=N)N)c2)c1 [Compound 16, 3,3′-(ethylenedioxy)dibenzaldehyde bis(amidinohydrazone) dihydrochloride]
- arginine transport % suppression of induced peak (RAW 264.7 cells [5]; dose 5 μM): 26%
- arginine transport % suppression of induced peak (RAW 264.7 cells [5]; dose 25 μM): 44%
- arginine transport % suppression of induced peak (RAW 264.7 cells [5]; dose 250 μM): 100%
- urea % suppression of induced production (RAW 264.7 cells [2]; dose 5 μM): 40%
- urea % suppression of induced production (RAW 264.7 cells [2]; dose 25 μM): 100%
- urea % suppression of induced production (RAW 264.7 cells [2]; dose 250 μM): 100%
- no2/no3 % suppression of induced production (RAW 264.7 cells [4]; dose 5 μM): 17%
- no2/no3 % suppression of induced production (RAW 264.7 cells [4]; dose 25 μM): 90%
- no2/no3 % suppression of induced production (RAW 264.7 cells [4]; dose 250 μM): 100%
